From paper PMC10113987, “A tool for nuclear imaging of the SARS-CoV-2 entry receptor: molecular model and preclinical development of ACE2-selective radiopeptides” (EJNMMI Research, 2023)
Where two headings read alike, the source gives them in different places. Positions of bridges follow the written chain, without caps; N, C: chain ends. Residues, ends and D or L forms follow the SMILES beside them. *: point of attachment. HBEDCC = O=C(O)CCc1ccc(O)c(CN(CCN(CC(=O)O)Cc2cc(CCC(=O)*)ccc2O)CC(=O)O)c1

What was measured:
[1] = set-up: method as in doi:10.1016/0020-1693(94)04012-5; details: cited from earlier work
FVB mice = assay: In vivo stability in immunocompetent FVB mice (TLC of blood plasma, urine, kidneys); set-up: species or system mouse; details: 1 h p.i., fraction of accumulated activity
Description: In order to investigate the stability of the radiopeptides, the ^67Ga-labeled DX600 peptides (20 MBq/nmol) were tested in immunocompetent FVB mice (10 MBq in 100 μL per mouse). Before sacrificing, blood was collected from each mouse 1 h after injection of the radiopeptides. After centrifugation, the blood plasma was analyzed using reversed phase TLC with citrate buffer (0.1 M, pH 5.5) as a mobile phase. The kidneys were collected and processed to investigate the presence of intact radiopeptides and potential metabolites using the same TLC system. The analysis of the chromatograms was performed as described for the in vitro plasma stability (Additional file 1).
Methods: Immunocompetent FVB mice were injected with the DX600-based radiopeptides (n=2). One hour later, urine was collected and blood was sampled from the retrobulbar vein followed by centrifugation (10 min, 200 rcf). A drop of urine and blood plasma was analyzed using the TLC method described for in vitro stability experiments above (reversed phase as stationary phase and citrate buffer pH 5.5 as mobile phase). The data were also confirmed using normal phase TLC. Kidneys of mice were collected, cut into small pieces, homogenized in 200 μL buffer solution (ice-cold methanol containing 0.025% NH4OH) and centrifuged (5 min, 2300 rcf, 4° C) as described by Boss et al.. An aliquot of the supernatant of each sample was developed using the same TLC method as for urine and blood plasma samples. The TLC plates were exposed to a phosphor screen which was afterwards read using a storage phosphor system (Cyclone Plus, PerkinElmer). The quantification of the signals was carried out using the OptiQuant software (version 5.0, Bright Instrument Co Ltd., PerkinElmer^TM). The obtained chromatograms were analyzed by determination of the peak area of the radiolabeled peptide, the released gallium-67 as well as degradation products of unknown structure. The quantity of the intact product was expressed as percentage of the sum of integrated peak areas of the entire chromatogram.

[2] = system: HEK-ACE2/HEK-ACE-xenografted mice; assay: SPECT/CT imaging and quantification of retained activity in HEK-ACE2/HEK-ACE xenografted mice; assay type: in vivo, mouse; details: SPECT/CT quantification, non-decay-corrected
Description: (§1) All applicable international, national, and/or institutional guidelines for the care and use of animals were followed. In particular, all animal experiments were carried out according to the guidelines of the Swiss Regulations for Animal Welfare. Preclinical studies have been ethically approved by the Cantonal Committee of Animal Experimentation and permitted by the responsible cantonal authorities (License N° 75743). Five-week-old female CD1/nude mice and female immunocompetent FVB mice were obtained from Charles River Laboratories (Sulzfeld, Germany) and fed with standard rodent chow ad libitum. CD1/nude were subcutaneously inoculated with HEK-ACE2 cells (6–8 × 10^6 cells in 100 µL PBS) on the right shoulder and approximately one week later with HEK-ACE (4 × 10^6 cells in 100 µL PBS) on the left shoulder. Imaging and biodistribution studies were performed 2–4 weeks later when the xenografts reached a size of 100–300 mm^3.
SPECT/CT imaging was performed using a four-head, multiplexing, multipinhole small-animal SPECT camera (NanoSPECT/CT™, Mediso Medical Imaging Systems, Budapest, Hungary). Each head was outfitted with a tungsten-based aperture of nine 1.4 mm-diameter pinholes and a thickness of 10 mm. CT scans of 7.5 min duration were followed by SPECT scans of ~ 50 min performed 1 h, 3 h and 24 h after injection of the respective radiopeptide (10 MBq, 0.5 nmol, 100 μL), diluted in NaCl 0.9% containing 0.05% BSA. During the scan, mice were anesthetized with a mixture of isoflurane and oxygen. The images were acquired using Nucline software (version 1.02, Mediso Ltd., Budapest, Hungary). The real-time CT reconstruction used a cone-beam-filtered backprojection. The reconstruction of SPECT data was performed with the HiSPECT software (version 1.4.3049, Scivis GmbH, Göttingen, Germany) using γ-energies of 93.20 keV (± 10%), 184.60 keV (± 10%) and 300.00 keV (± 10%) for gallium-67. All images were prepared using the VivoQuant post-processing software (version 3.0, inviCRO Imaging Services and Software, Boston, US). A Gauss post-reconstruction filter (full width at half maximum, 1 mm) was applied, and the scale of activity for gallium-67 was set as indicated on the SPECT/CT images. In order to estimate the wash-out of the DX600-based radiopeptides from the HEK-ACE2 xenografts and kidneys over time, the absolute amount of activity was determined in these tissues using the VivoQuant quantification tool. The accumulated activity (non-decay-corrected value in MBq) in the xenografts and kidneys, respectively, obtained at the 1 h p.i. timepoint was set as 100%. The percentage of activity retained in these tissues was determined at 3 h and 24 h p.i. based on the absolute activity determined at these timepoints.

[3] = In vitro stability in human blood plasma (TLC); assay type: in vitro ADME; details: 37 °C, whole incubation period of 24 h
Description: (§2) The ^67Ga-labeled DX600-radiopeptides (20 MBq/nmol) were incubated in human and mouse plasma (10 MBq/200 µL), respectively, at 37 °C. Aliquots were taken at variable time points up to 24 h for analysis using reversed phase thin layer chromatography (TLC) with citrate buffer (0.1 M, pH 5.5) as a mobile phase. Images of the TLC plates were obtained using a storage phosphor system (Cyclone Plus, PerkinElmer) and quantified using the OptiQuant software (version 5.0, Bright Instrument Co Ltd., PerkinElmer™) (Supplementary Information).
(§3) The radiopeptides were prepared and TLC experiments were performed immediately after radiolabeling by applying the diluted radiopeptides in saline (1 µL; ~0.05 MBq) and [^67Ga]GaCl3 solution (1 µL; ~0.05 MBq) on the TLC plates. The radiopeptides were incubated in mouse or human plasma (10 MBq/200 µL) at 37° C. TLC was performed with an aliquot of the plasma samples at the given timepoints (30 min, 1 h, 3 h and 24 h). The TLC plates were exposed to a phosphor screen followed by development using a storage phosphor system (Cyclone Plus, PerkinElmer). The quantification of the signals was carried out using the OptiQuant software (version 5.0, Bright Instrument Co Ltd., PerkinElmer^TM). The obtained chromatograms were analyzed by determination of the peak area of the radiolabeled peptide, the released gallium-67 as well as degradation products of unknown structure. The quantity of the intact product was expressed as percentage of the sum of integrated peak areas of the entire chromatogram.

[4] = system: HEK-ACE2/HEK-ACE-xenografted mice; assay: Biodistribution in HEK-ACE2/HEK-ACE xenografted mice; assay type: in vivo, mouse
Description: as §1
Biodistribution studies in xenograft-bearing mice were performed 2–4 weeks after cell inoculation. Mice were intravenously injected with [^67Ga]Ga-DOTA-DX600, [^67Ga]Ga-NODAGA-DX600, [^67Ga]Ga-HBED-CC-DX600 or [^67Ga]Ga-DOTA-BPP9a (3 MBq, 0.5 nmol, 100 µL) diluted in NaCl 0.9% containing 0.05% BSA. The mice were sacrificed 3 h after administration of the radiopeptides. Selected tissues and organs were collected, weighed and counted using a γ-counter. The results were listed as a percentage of the injected activity per gram of tissue mass (% IA/g), using counts of a defined volume of the original injection solution measured simultaneously, resulting in decay-corrected values. Statistical analysis was performed by applying a one‐way ANOVA test with a Tukey’s multiple comparisons post‐test (GraphPad Prism software, version 8.3.1).

[5] = In vitro stability in mouse blood plasma (TLC); assay type: in vitro ADME; details: 37 °C
Description: as §2, §3

[6] = 3 h after i.v. injection, decay-corrected, n = 3

O=C(O)CCc1ccc(O)c(CN(CCN(CC(=O)O)Cc2cc(CCC(=O)O)ccc2O)CC(=O)O)c1 [HBED-CC, 3-(3-((2-((5-(2-carboxyethyl)-2-hydroxyphenyl)methyl-(carboxymethyl)amino)ethyl-(carboxymethyl)amino)methyl)-4-hydroxyphenyl)propanoic acid]
logK of coordination ([1]; Ga^3+): 38 | logK of coordination ([1]; Zn^2+): 18

CC(=O)N[C@@H](CCCCNC(=O)CCc1ccc(O)c(CN(CCN(CC(=O)O)Cc2cc(CCC(=O)O)ccc2O)CC(=O)O)c1)C(=O)NCC(=O)N[C@@H](CC(=O)O)C(=O)N[C@@H](Cc1ccc(O)cc1)C(=O)N[C@@H](CO)C(=O)N[C@@H](Cc1c[nH]cn1)C(=O)N[C@H]1CSSC[C@@H](C(=O)N[C@H](C(=O)N[C@@H](Cc2ccc(O)cc2)C(=O)N2CCC[C@H]2C(=O)N[C@@H](CC(=O)O)C(=O)N2CCC[C@H]2C(=O)N[C@@H](CCC(=O)O)C(=O)NCC(=O)NCC(=O)NCC(N)=O)[C@@H](C)O)NC(=O)[C@H](CCCCN)NC(=O)[C@H](Cc2c[nH]c3ccccc23)NC(=O)[C@H](Cc2c[nH]c3ccccc23)NC(=O)[C@@H]2CCCN2C(=O)[C@H](Cc2ccc(O)cc2)NC(=O)[C@H](Cc2ccc(O)cc2)NC(=O)[C@H](CCCNC(=N)N)NC(=O)[C@H](CC(C)C)NC(=O)[C@@H]2CCCN2C(=O)[C@H](CO)NC1=O [[^67Ga]Ga-HBED-CC-DX600, metal not drawn] (Ac-K(HBEDCC)GDYSHCSPLRYYPWWKCTYPDPEGGG-NH2; disulfide 7-18)
Intact radiopeptide in kidney homogenates (FVB mice): > 92% | Radiometabolites in kidney homogenates (FVB mice): ~ 7.5% | Activity retained in the kidneys relative to the 1 h p.i.-timepoint ([2]; 3 h p.i.): 30% | Activity retained in the kidneys relative to the 1 h p.i.-timepoint ([2]; 24 h p.i.): < 1% | Intact radiopeptide in human blood plasma [3]: > 99% | Biodistribution: ACE2 xenograft (HEK-ACE2) [4, 6]: 12.3 ± 1.3 % IA/g | Biodistribution: ACE xenograft (HEK-ACE) [4, 6]: < 0.5 % IA/g | Biodistribution: blood [4, 6]: 0.09 ± 0.04 % IA/g | Biodistribution: bone [4, 6]: 0.05 ± 0.02 % IA/g | Biodistribution: heart [4, 6]: 0.07 ± 0.03 % IA/g | Biodistribution: intestines [4, 6]: 0.43 ± 0.31 % IA/g | Biodistribution: kidneys (renal retention) [4, 6]: 7.2 ± 2.2 % IA/g | Biodistribution: liver [4, 6]: 0.23 ± 0.16 % IA/g | Biodistribution: lung [4, 6]: 0.13 ± 0.05 % IA/g | Biodistribution: muscle [4, 6]: 0.03 ± 0.02 % IA/g | Biodistribution: salivary glands [4, 6]: 0.05 ± 0.02 % IA/g | Biodistribution: spleen [4, 6]: 0.06 ± 0.03 % IA/g | Biodistribution: stomach [4, 6]: 0.09 ± 0.03 % IA/g | Biodistribution: ACE xenograft (HEK-ACE) ([4]; 3 h after i.v. injection, decay-corrected, n = 3, listed as [^67Ga]Ga-HBED-CC- DX600): 0.27 ± 0.33 % IA/g | HEK-ACE2 xenograft-to-kidney ratio ([4]; 3 h after injection): 1.77 ± 0.34 | Intact radiopeptide in mouse blood plasma ([5]; 3 h): 87 ± 2% | Intact radiopeptide in mouse blood plasma ([5]; 24 h): 29 ± 1%
